Holding throughout (test): inhibition of tumour cell growth, NCI panel, 48 h
The test system of assay [1] is CCRF-CEM.
In assay [2] the test system is A549.
For assay [3], the system named is U-251.
Assay [4] relates to HCT-15.
Assay [5] relates to A498.
For assay [6], the system named is HCT-116.
The subject of assay [7] is HOP-62.
In assay [8] the test system is SW-620.
For assay [9], the system named is 786-0.
The subject of assay [10] is NCI-H522.
In assay [11] the test system is MCF7.
Assay [12] has as its system SK-MEL-28.
Assay [13] deals with MDA-MB-231.
The subject of assay [14] is SN12C.
Assay [15] deals with M14.
The subject of assay [16] is NCI/ADR-RES.
The test system of assay [17] is UACC-257.
Assay [18] relates to SF-268.
Assay [19] deals with SF-539.
In assay [20] the test system is SNB-75.

Each structure is given as a SMILES string.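 Step 1: Grow cells in 96-well plates. Step 2: Expose to compound for 48 hours at 5 concentrations. Step 3: Interpolate endpoints linearly; if unreached, use highest concentration. GI50 marks 50% less growth.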 Active and inactive are the calls of the source. Cut-off read from the data, not from the text of the source: active = GI50 up to about 1.1 µM and inactive = higher. Some results are limits rather than exact numbers.

On to `COc1ccc(N2C(=O)/C(=C\c3cccc(Oc4ccccc4)c3)S(=O)(=O)C2c2ccccc2)cc1` (stereo not given), for which the GI50 in assay [1] was 73.6 µM (inactive); in assay [2] it was 31.5 µM (inactive); in assay [3], 50.7 µM (inactive); in [4], 21 µM; in assay [5], 28.9 µM (inactive); in [6] it was 20.4 µM (inactive). For the same compound, the GI50 in assay [7] was 51.9 µM (inactive); in [8] it was 60.8 µM (inactive); in [9], 18.1 µM (inactive); in assay [10] it was 12.3 µM (inactive); in [11], 26 µM (inactive); in assay [12] it was > 100 µM (inactive). For the same compound, the GI50 in assay [13] was 85.1 µM (inactive); in assay [14] it was 66.4 µM (inactive); in [15] it was 38.8 µM (inactive); in assay [16], 16.2 µM (inactive); in assay [17], 26.1 µM (inactive).

In the case of `CCC1c2[nH]c3ccccc3c2C[C@H]2C(=O)NC(Cc3ccccc3)C(=O)N12` (stereo not given in full), the GI50 in assay [2] was 30.1 µM (inactive); in [3] it was 22.8 µM (inactive); in [4] it was 35 µM; in assay [5], 38.5 µM (inactive); in [6], 24.7 µM (inactive); in [7], 34.8 µM (inactive). For the same compound, the GI50 in assay [8] was 35.6 µM (inactive); in assay [9], 36 µM (inactive); in [10], 22.9 µM (inactive); in assay [11], 34.9 µM (inactive); in assay [12] it was 40 µM (inactive); in assay [13], 21 µM (inactive). The GI50 in assay [14] is 28.5 µM (inactive); in assay [15] it was 27.9 µM (inactive); in assay [16] it was 29.8 µM (inactive); in assay [17], 18 µM (inactive); in [18], 27.2 µM (inactive).

For `COC(=O)C1=COc2c(n(C)c3ccccc23)-c2ccccc21`, the GI50 in [1] was > 100 µM (inactive); in assay [3], > 100 µM (inactive); in assay [4], above 100 µM; in assay [19] it was 81.1 µM (inactive); in assay [5] it was > 100 µM (inactive); in [6], > 100 µM (inactive). In addition, the GI50 in assay [7] was > 100 µM (inactive); in assay [8], > 100 µM (inactive); in [20], 27.6 µM (inactive); in assay [9], > 100 µM (inactive); in assay [11], > 100 µM (inactive); in [13] it was > 100 µM (inactive). In addition, the GI50 in assay [14], in assay [15], in assay [16], in [17] and in assay [18] was > 100 µM (inactive) in each case.

As to `Cc1nnc2n1-c1ccccc1-c1[nH]c3ccccc3c1C2`, the GI50 in assay [1] is 53.8 µM (inactive); in [2] it was 91 µM (inactive); in [19], > 100 µM (inactive); in [5] it was 19.2 µM (inactive); in [6], 54.8 µM (inactive); in assay [7], 58.9 µM (inactive). Besides, the GI50 in assay [8] was > 100 µM (inactive); in assay [20], 8.24 µM (inactive); in assay [9] it was 83.8 µM (inactive); in assay [11], > 100 µM (inactive); in [12], 73.5 µM (inactive); in assay [13], 58.5 µM (inactive). Also, the GI50 in [14] is > 100 µM (inactive); in assay [15] it was 43.1 µM (inactive); in assay [16], 69.8 µM (inactive); in assay [17], 59.8 µM (inactive); in assay [18] it was > 100 µM (inactive).

For `CC(C)(C)/C(=N\Nc1nc2ccccc2[nH]1)c1ccccn1`, the GI50 in assay [1] was 46.1 µM (inactive); in [2], > 100 µM (inactive); in assay [3] it was > 100 µM (inactive); in assay [4] it was 43.1 µM; in assay [19], > 100 µM (inactive); in assay [5], > 100 µM (inactive). The GI50 in assay [6] was 22.8 µM (inactive); in assay [7] it was > 100 µM (inactive); in assay [8] it was 65.2 µM (inactive); in assay [9], > 100 µM (inactive); in [10], 33.9 µM (inactive); in [11] it was 24.9 µM (inactive). The GI50 in assay [12] was > 100 µM (inactive); in [13], > 100 µM (inactive); in assay [14], > 100 µM (inactive); in assay [15], 61 µM (inactive); in assay [16], 65.3 µM (inactive); in assay [17] it was > 100 µM (inactive). Moreover, the GI50 in assay [18] is > 100 µM (inactive).

As for `Clc1cc(Cl)c2cc3cccc[n+]3cc2c1Cl`, the GI50 in assay [1] was 12.1 µM (inactive); in assay [2] it was 17.2 µM (inactive); in assay [3], 16.7 µM (inactive); in assay [4], 18.3 µM; in assay [19], 18.3 µM (inactive); in [5] it was 18.6 µM (inactive). Also, the GI50 is 6.44 µM (inactive) in assay [6]; 15.6 µM (inactive) in assay [7]; 17.6 µM (inactive) in assay [8]; 12 µM (inactive) in assay [20]; 18.7 µM (inactive) in [9]; 14.2 µM (inactive) in assay [11]. Moreover, the GI50 in assay [12] was 15.5 µM (inactive); in assay [13], 17.9 µM (inactive); in assay [14] it was 17.9 µM (inactive); in assay [15] it was 17.5 µM (inactive); in assay [16] it was 18.3 µM (inactive); in [17], 15.2 µM (inactive). In addition, the GI50 in assay [18] is 12.8 µM (inactive).

Regarding `C[C@]12C(=O)OC[C@H](c3ccccc3)N1C(=O)N(Cc1ccccc1)[C@@H]2CO`, the GI50 in assay [1] is > 100 µM (inactive); in assay [2], > 100 µM (inactive); in [4], above 100 µM; in [19], > 100 µM (inactive); in assay [5] it was > 100 µM (inactive); in assay [6], > 100 µM (inactive). In addition, the GI50 is > 100 µM (inactive) in assay [7]; > 100 µM (inactive) in assay [8]; 45.6 µM (inactive) in assay [20]; > 100 µM (inactive) in [9]; > 100 µM (inactive) in assay [11]; > 100 µM (inactive) in assay [12]. For the same compound, the GI50 in assay [13], in [14], in [15], in [16], in assay [17] and in [18] was > 100 µM (inactive) in each case.

On to `CC1CCC(C(C)C)C(OC(=O)NCn2cc(-c3ccccc3)nn2)C1` (stereo not given), for which the GI50 in [1] is > 100 µM (inactive); in assay [2], > 100 µM (inactive); in assay [3] it was > 100 µM (inactive); in assay [4], above 100 µM; in [19], 48.3 µM (inactive); in assay [6] it was > 100 µM (inactive). Moreover, the GI50 in assay [7] is 25.6 µM (inactive); in assay [8], > 100 µM (inactive); in assay [20] it was 25.6 µM (inactive); in assay [9] it was 41.2 µM (inactive); in assay [10], > 100 µM (inactive); in assay [11], > 100 µM (inactive). The GI50 in assay [12], in assay [13], in [14], in assay [15], in assay [16] and in [17] was > 100 µM (inactive) in each case. The GI50 in assay [18] is 58.7 µM (inactive).

Turning to `O=C(OCCN=C1c2ccccc2CCc2ccccc21)c1cc([N+](=O)[O-])cc([N+](=O)[O-])c1`, the GI50 was 74.6 µM (inactive) in assay [1]; 26.7 µM (inactive) in assay [2]; > 100 µM (inactive) in assay [3]; above 31.6 µM in [4]; > 31.6 µM (inactive) in assay [19]; > 10 µM (inactive) in [5]. Further, the GI50 is > 31.6 µM (inactive) in assay [6]; > 31.6 µM (inactive) in assay [7]; > 31.6 µM (inactive) in [8]; > 100 µM (inactive) in assay [20]; > 31.6 µM (inactive) in assay [9]; > 31.6 µM (inactive) in [11]. For the same compound, the GI50 in assay [12], in assay [13], in assay [14], in [15], in assay [16] and in [17] was > 31.6 µM (inactive) throughout. Also, the GI50 in [18] is > 31.6 µM (inactive).

In the case of `c1ccc(Cc2cccc3cc(-c4ccc(-c5ccccc5)cc4)[nH]c23)cc1`, the GI50 in assay [1] is 30.1 µM (inactive); in assay [2] it was 76.7 µM (inactive); in [3], 70.6 µM (inactive); in assay [4] it was above 100 µM; in [19], 53.8 µM (inactive); in [6] it was > 100 µM (inactive). The GI50 in assay [7] was 31.5 µM (inactive); in assay [8] it was 92 µM (inactive); in assay [20], 22.5 µM (inactive); in assay [9] it was > 100 µM (inactive); in assay [10], 17.2 µM (inactive); in assay [11] it was 97.1 µM (inactive). In addition, the GI50 is > 100 µM (inactive) in [12]; 99.5 µM (inactive) in assay [13]; 96.6 µM (inactive) in assay [14]; 52.8 µM (inactive) in assay [15]; > 100 µM (inactive) in assay [16]; > 100 µM (inactive) in [17]. In assay [18], the GI50 is 32.7 µM (inactive).

Regarding `Nc1ncnc2ccc(Sc3ccc4ncnc(N)c4c3)cc12`, the GI50 is > 100 µM (inactive) in assay [1]; > 100 µM (inactive) in assay [2]; > 100 µM (inactive) in assay [3]; above 100 µM in assay [4]; > 100 µM (inactive) in assay [19]; > 100 µM (inactive) in assay [5]. Moreover, the GI50 in assay [6], in assay [7], in assay [8], in assay [20], in assay [9] and in assay [11] was > 100 µM (inactive) each time. Also, the GI50 in assay [12], in assay [13], in assay [14], in assay [15], in assay [16] and in assay [17] was > 100 µM (inactive) each time. Further, in [18], the GI50 is > 100 µM (inactive).

The values are drawn from ChEMBL document CHEMBL1201862, “PubChem BioAssay data set” (2004).
